Reference: patent US20260191849A1, “PHARMACEUTICAL COMPOSITION FOR TREATMENT OF CANCER” (WIGEN BIOMEDICINE TECHNOLOGY (SHANGHAI) CO., LTD., priority 2022, published 2026)
Like-named read-outs stand apart in the source and are kept apart here.

Assays:
HCT116 cells [1] = test: In vitro anti-proliferative activity against HCT116 cells (Biological Example 2); format: cell-based; conditions: in words, from Table 4
Description: (§1) HCT116 cells were seeded on a 384-well plate at 3000 cells/well. After overnight adherence culture, DMSO or the compounds serially diluted in a 1:5 ratio from 5 μM were added. The cell viability was assessed 72 h after dosing by measuring the intracellular ATP content. The inhibition percentages of viable cells by the compounds were calculated by comparing with the DMSO group, and the IC50 values were also calculated.

[2] = system: HT29 subcutaneous xenograft tumors; test: In vivo pharmacodynamic study, HT29 subcutaneous xenograft tumor model of mice (Biological Example 3); parameters: species or system BALB/c nude mice; conditions: 80 mg/kg intragastric once daily, day 28
Description: BALB/c nude mice were each inoculated subcutaneously with 5×10^6 HT29 cells on the left dorsal side. After the tumors grew to 100-150 mm^3, the mice were randomly divided into the following groups for intragastric administration once daily: group 1: vehicle control group; group 2: compound 661 (80 mg/kg); group 3: compound 669 (80 mg/kg); group 4: compound 677 (80 mg/kg); group 5: compound 714 (80 mg/kg); group 6: compound 727 (80 mg/kg); group 7: compound 740 (80 mg/kg); and group 8: AMG65 (80 mg/kg). The tumor volume was measured twice weekly and at the end of administration. […].

[3] = system: HT29 subcutaneous xenograft tumors; test: In vivo pharmacodynamic study of combination therapy, HT29 subcutaneous xenograft tumor model of mice (Biological Example 14); parameters: species or system BALB/c nude mice
Excerpt: BALB/c nude mice were each inoculated subcutaneously with 5×10^6 HT29 cells on the left dorsal side. After the tumors grew to 100-150 mm^3, the mice were randomly divided into the following groups for intragastric administration once daily for 14 consecutive days: group 1: vehicle control group; group 2: AMG650 (50 mpk, PO, QD); group 3: compound 714 (50 mpk, PO, QD); group 4: AMG650 (50 mpk, PO, QD)+Onvasertib (20 mpk, PO, QD); group 5: compound 714 (50 mpk, PO, QD)+Onvasertib (20 mpk, PO, QD); and group 6: Onvasertib (20 mpk, PO, QD). The administration to all the groups was stopped on day 15, and the tumor growth continued to be observed until day 21. The tumor volume was measured twice weekly and at the end of administration. […]

HT29 cells [4] = test: Combined use of compound 257 with PLK1 inhibitor on HT29 cell viability, 72 h (Biological Example 5); format: cell-based; conditions: for IC50: Homo sapiens, HT-29, 72 h, HT29 cells
Description: as §1, with “HT29 cells” for “HCT116 cells”, “or compound 257” for “or the compounds”, “μM and a PLK1 inhibitor with a specified concentration” for “μM”

HT29 cells [5] = test: Combined use of compound 257 with PLK1 inhibitor (CYC140, TAK-960) on HT29 cell viability, 168 h (Biological Example 9); format: cell-based; conditions: for Maximum inhibition rate / Minimum inhibition rate / IC50 / inhibition: HT29 cells; for IC50 / inhibition: Homo sapiens, HT-29, 168 h
Description: as §1, with “HT29 cells” for “HCT116 cells”, “or compound 257” for “or the compounds”, “from 400 nM and a PLK1 inhibitor with a specified concentration” for “from 5 μM”, “assessed 168” for “assessed 72”

HCT116 cells [6] = test: Combined use of compound 257 with PLK1 inhibitor (CYC140, TAK-960) on HCT116 cell viability, 168 h (Biological Example 10); format: cell-based
Description: as §1, with “or compound 257” for “or the compounds”, “from 400 nM and a PLK1 inhibitor with a specified concentration” for “from 5 μM”, “assessed 168” for “assessed 72”

HCT116 cells [7] = test: Combined use of compound 257 with Aurora B inhibitor on HCT116 cell viability, 72 h (Biological Example 12); format: cell-based
Description: as §1, with “or compound 257” for “or the compounds”, “μM and an Aurora B inhibitor with a specified concentration” for “μM”

[8] = PO QD 14 days, AMG650/714 50 mpk, Onvasertib 20 mpk, day 15
[9] = PO QD 14 days, AMG650/714 50 mpk, Onvasertib 20 mpk, day 21, after stop of administration

**Q.** For `Cc1cc(NC(=O)c2ccc(NS(=O)(=O)CCO)cc2N2CCC3(CC2)CC3)nc(N2CCC(F)(F)CC2)n1` [AMG650], which “anti-proliferative activity against HCT116 cells” value (HCT116 cells [1]) is on record?
**A.** neither the compounds of the present disclosure nor AMG65 exhibited anti-proliferative activity

**Q.** What about the TGI [2] of the same compound?
**A.** 64%

**Q.** What about the “Tumor volume on day 1 of administration” value ([3]; PO QD 14 days, AMG650/714 50 mpk, Onvasertib 20 mpk, day 1 (baseline)) of the same compound?
**A.** 132 mm^3

**Q.** What about the “TGI on day 15” value [3, 8] of the same compound?
**A.** 115%

**Q.** And the “Tumor volume on day 15 of administration” value [3, 8]?
**A.** 49 mm^3

**Q.** And the “TGI on day 21” value [3, 9]?
**A.** 100%

**Q.** What about the “Tumor volume on day 21 of administration” value [3, 9] of the same compound?
**A.** 126 mm^3

**Q.** What about the “tumor inhibitory effect, combined use with the PLK1 inhibitor Onvasertib compared with monotherapy” value ([3]; combined with Onvasertib, in words) of the same compound?
**A.** stronger tumor inhibitory effect

**Q.** What about the “therapeutic efficacy of monotherapy in HT29-bearing mice” value ([3]; monotherapy, in words) of the same compound?
**A.** able to inhibit tumor growth

**Q.** How did the IC50 (HT29 cells [4]; BI 2536 0 nM) turn out when `COc1ccc(NC(=O)c2ccc(NS(=O)(=O)CCO)cc2N2CCC3(CC2)CC3)nc1N1CCC(F)(F)CC1` [Compound 257] was run?
**A.** 13.5 nM

**Q.** What about the IC50 (HT29 cells [4]; BI 2536 1.25 nM) of the same compound?
**A.** 9.9 nM

**Q.** And the IC50 (HT29 cells [4]; BI 2536 2.5 nM)?
**A.** 6.2 nM

**Q.** What about the IC50 (HT29 cells [4]; BI 2536 5 nM) of the same compound?
**A.** 2 nM

**Q.** What about the IC50 (HT29 cells [4]; BI 2536 10 nM) of the same compound?
**A.** 0.6 nM

**Q.** And the IC50 (HT29 cells [4]; GSK461364 0 nM)?
**A.** 13.5 nM

**Q.** And the IC50 (HT29 cells [4]; GSK461364 1.25 nM)?
**A.** 14.3 nM

**Q.** What about the IC50 (HT29 cells [4]; GSK461364 2.5 nM) of the same compound?
**A.** 8.8 nM

**Q.** What about the IC50 (HT29 cells [4]; GSK461364 5 nM) of the same compound?
**A.** 3.3 nM

**Q.** What about the IC50 (HT29 cells [4]; GSK461364 10 nM) of the same compound?
**A.** 0.5 nM

**Q.** What about the IC50 (HT29 cells [4]; MLN0905 0 nM) of the same compound?
**A.** 13.1 nM

**Q.** What about the IC50 (HT29 cells [4]; MLN0905 12.5 nM) of the same compound?
**A.** 4.7 nM

**Q.** And the IC50 (HT29 cells [4]; MLN0905 25 nM)?
**A.** 0.5 nM

**Q.** What about the IC50 (HT29 cells [4]; Onvansertib 0 nM) of the same compound?
**A.** 12.7 nM

**Q.** And the IC50 (HT29 cells [4]; Onvansertib 12.5 nM)?
**A.** 5.2 nM

**Q.** And the IC50 (HT29 cells [4]; Onvansertib 25 nM)?
**A.** 0.8 nM

**Q.** What about the IC50 (HT29 cells [4]; Rigosertib 0 nM) of the same compound?
**A.** 14.5 nM

**Q.** And the IC50 (HT29 cells [4]; Rigosertib 12.5 nM)?
**A.** 12.2 nM

**Q.** And the IC50 (HT29 cells [4]; Rigosertib 25 nM)?
**A.** 15.2 nM

**Q.** And the IC50 (HT29 cells [4]; Rigosertib 50 nM)?
**A.** 9.1 nM

**Q.** And the IC50 (HT29 cells [4]; Rigosertib 100 nM)?
**A.** 0.4 nM

**Q.** And the IC50 (HT29 cells [4]; Ro3280 0 nM)?
**A.** 13.6 nM

**Q.** And the IC50 (HT29 cells [4]; Ro3280 12.5 nM)?
**A.** 2.9 nM

**Q.** And the IC50 (HT29 cells [4]; Ro3280 25 nM)?
**A.** 0.4 nM

**Q.** What about the IC50 (HT29 cells [4]; Volasertib 0 nM) of the same compound?
**A.** 13.1 nM

**Q.** And the IC50 (HT29 cells [4]; Volasertib 12.5 nM)?
**A.** 1.1 nM

**Q.** What about the IC50 (HT29 cells [4]; Volasertib 25 nM) of the same compound?
**A.** 0.7 nM

**Q.** What about the “inhibitory effect on HT-29 cells, combined use with the PLK1 inhibitor compared with monotherapy” value (HT29 cells [4]; in words) of the same compound?
**A.** stronger inhibitory effect

**Q.** And the “inhibitory effect on HT-29 cells, combined use with the PLK1 inhibitor compared with monotherapy” value (HT29 cells [5]; CYC140 or TAK-960, in words)?
**A.** stronger inhibitory effect

**Q.** And the Maximum inhibition rate (HT29 cells [5]; CYC140 (Plogosertib) 0 nM)?
**A.** 44.2%

**Q.** And the Minimum inhibition rate (HT29 cells [5]; CYC140 (Plogosertib) 0 nM)?
**A.** -7.1%

**Q.** What about the Maximum inhibition rate (HT29 cells [5]; TAK-960 0 nM) of the same compound?
**A.** 57.1%

**Q.** What about the Minimum inhibition rate (HT29 cells [5]; TAK-960 0 nM) of the same compound?
**A.** 1.5%

**Q.** What about the IC50 (HT29 cells [5]; CYC140 (Plogosertib) 0 nM) of the same compound?
**A.** 15.7 nM

**Q.** What about the IC50 (HT29 cells [5]; CYC140 (Plogosertib) 1.6 nM) of the same compound?
**A.** 10.4 nM

**Q.** And the inhibition (HT29 cells [5]; CYC140 (Plogosertib) 1.6 nM, read-out: Maximum inhibition rate)?
**A.** 80.3%

**Q.** And the inhibition (HT29 cells [5]; CYC140 (Plogosertib) 1.6 nM, read-out: Minimum inhibition rate)?
**A.** -0.7%

**Q.** What about the IC50 (HT29 cells [5]; CYC140 (Plogosertib) 8 nM) of the same compound?
**A.** 3.1 nM

**Q.** And the inhibition (HT29 cells [5]; CYC140 (Plogosertib) 8 nM, read-out: Maximum inhibition rate)?
**A.** 90.9%

**Q.** What about the inhibition (HT29 cells [5]; CYC140 (Plogosertib) 8 nM, read-out: Minimum inhibition rate) of the same compound?
**A.** 0.4%

**Q.** And the IC50 (HT29 cells [5]; TAK-960 0 nM)?
**A.** 14 nM

**Q.** What about the IC50 (HT29 cells [5]; TAK-960 8 nM) of the same compound?
**A.** 13.1 nM

**Q.** What about the inhibition (HT29 cells [5]; TAK-960 8 nM, read-out: Maximum inhibition rate) of the same compound?
**A.** 86.1%

**Q.** What about the inhibition (HT29 cells [5]; TAK-960 8 nM, read-out: Minimum inhibition rate) of the same compound?
**A.** 7.5%

**Q.** What about the IC50 (HT29 cells [5]; TAK-960 40 nM) of the same compound?
**A.** 2.4 nM

**Q.** What about the inhibition (HT29 cells [5]; TAK-960 40 nM, read-out: Maximum inhibition rate) of the same compound?
**A.** 93.6%

**Q.** What about the inhibition (HT29 cells [5]; TAK-960 40 nM, read-out: Minimum inhibition rate) of the same compound?
**A.** -4%

**Q.** And the “synergistic effect on HCT116 cell viability, combined use with the PLK1 inhibitor” value (HCT116 cells [6]; CYC140 or TAK-960, in words)?
**A.** no significant synergistic effect

**Q.** And the IC50 (HCT116 cells [6]; HCT116 cells, CYC140 (Plogosertib) 1.6 nM)?
**A.** > 400 nM

**Q.** And the IC50 (HCT116 cells [6]; HCT116 cells, CYC140 (Plogosertib) 8 nM)?
**A.** > 400 nM

**Q.** What about the IC50 (HCT116 cells [6]; HCT116 cells, TAK-960 0 nM) of the same compound?
**A.** > 400 nM

**Q.** And the IC50 (HCT116 cells [6]; HCT116 cells, TAK-960 8 nM)?
**A.** > 400 nM

**Q.** What about the IC50 (HCT116 cells [6]; HCT116 cells, TAK-960 40 nM) of the same compound?
**A.** > 400 nM

**Q.** What about the IC50 (HCT116 cells [6]; Homo sapiens, HCT-116, HCT116 cells, CYC140 (Plogosertib) 0 nM) of the same compound?
**A.** > 400 nM

**Q.** And the “anti-proliferative activity against HCT116 cells, monotherapy” value (HCT116 cells [6]; in words)?
**A.** did not exhibit anti-proliferative activity

**Q.** What about the IC50 (HCT116 cells [7]; HCT116 cells, Barasertib 0 nM) of the same compound?
**A.** > 10000 nM

**Q.** And the IC50 (HCT116 cells [7]; HCT116 cells, Barasertib 10 nM)?
**A.** > 10000 nM

**Q.** And the IC50 (HCT116 cells [7]; HCT116 cells, Barasertib 100 nM)?
**A.** > 10000 nM

**Q.** What about the IC50 (HCT116 cells [7]; Homo sapiens, HCT-116, HCT116 cells, Barasertib 1000 nM) of the same compound?
**A.** > 10000 nM

**Q.** And the “anti-proliferative activity against HCT116 cells, monotherapy” value (HCT116 cells [7]; in words)?
**A.** did not exhibit anti-proliferative activity

**Q.** What about the “synergistic effect on HCT116 cell viability, combined use with the Aurora B inhibitor” value (HCT116 cells [7]; in words) of the same compound?
**A.** no significant synergistic effect
